# Assay results reported in patent US20060116368A1, “4-Piperidinecarboxamide modulators of vanilloid VR1 receptor” (priority 2004, published 2006).
# Molecular target: T1, Human Vanilloid Receptor 1 (Homo sapiens, UniProt Q8NER1)
# T1 construct: expressed in transfected cells; host or cells: HEK 293
# Assay: Human VR1 functional assay using FLIPR, Protocol 1
# Format: cell-based
# Details: for inhibition at 9 µM: HEK293, 9 uM, inhibition of capsaicin (EC80)-induced calcium response, HEK 293 cells transfected with hVR1, read-out: h % I (9 uM); for IC50: decreased capsaicin (EC80)-induced calcium response, HEK 293 hVR1, read-out: h IC50; for Emax at 12.2 µM: HEK293, 12.2 uM, test compound-induced calcium response (agonist mode), HEK 293 hVR1, read-out: % maximal reponse to capsaicin (12.2 uM); for EC50: test compound-induced calcium response at the 5-minute time point, HEK 293 hVR1, read-out: h EC50
# Description: The functional activity of the test compounds was determined by measuring changes in intracellular calcium concentration using FLIPR™ Calcium-3 Assay Kit and FLIPR™ technology.
# HEK 293 cells transfected with Human Vanilloid Receptor 1 were maintained at 37° C. and 5% CO2 in: Dulbecco's Modification of Eagle's Medium (high glucose, L-glutamine, pyridoxine HCl, No sodium pyruvate), 10% FBS, 1× Penicillin-Streptomycin-Amphotericin B, 200 ug/mL zeocin. Approximately 24 hours prior to assay, 30,000 cells/well were plated onto a 384-well black clear bottom poly-D-lysine-coated assay plate with a well volume of 25 µL using Titertek Multidrop.
# On the day of the assay, the medium was dumped and 50 μL 1× dye were loaded using Multidrop. Plates were incubated with dye at 37° C. for 30 minutes followed by 30 minutes incubation at room temperature. Then the plates were assayed by FLIPR™ with 2 additions: 12.5 μL test compound with 5 minutes data acquisition followed by 12.5 μL capsaicin at the EC80 concentration.
# The EC50 values of test compounds were calculated based on a test compound-induced calcium response at the 5-minute time point. The IC50 values of compounds were calculated based on a decreased capsaicin-induced calcium response in the presence of test compound.
# T1 sequence (Q8NER1 whole entry): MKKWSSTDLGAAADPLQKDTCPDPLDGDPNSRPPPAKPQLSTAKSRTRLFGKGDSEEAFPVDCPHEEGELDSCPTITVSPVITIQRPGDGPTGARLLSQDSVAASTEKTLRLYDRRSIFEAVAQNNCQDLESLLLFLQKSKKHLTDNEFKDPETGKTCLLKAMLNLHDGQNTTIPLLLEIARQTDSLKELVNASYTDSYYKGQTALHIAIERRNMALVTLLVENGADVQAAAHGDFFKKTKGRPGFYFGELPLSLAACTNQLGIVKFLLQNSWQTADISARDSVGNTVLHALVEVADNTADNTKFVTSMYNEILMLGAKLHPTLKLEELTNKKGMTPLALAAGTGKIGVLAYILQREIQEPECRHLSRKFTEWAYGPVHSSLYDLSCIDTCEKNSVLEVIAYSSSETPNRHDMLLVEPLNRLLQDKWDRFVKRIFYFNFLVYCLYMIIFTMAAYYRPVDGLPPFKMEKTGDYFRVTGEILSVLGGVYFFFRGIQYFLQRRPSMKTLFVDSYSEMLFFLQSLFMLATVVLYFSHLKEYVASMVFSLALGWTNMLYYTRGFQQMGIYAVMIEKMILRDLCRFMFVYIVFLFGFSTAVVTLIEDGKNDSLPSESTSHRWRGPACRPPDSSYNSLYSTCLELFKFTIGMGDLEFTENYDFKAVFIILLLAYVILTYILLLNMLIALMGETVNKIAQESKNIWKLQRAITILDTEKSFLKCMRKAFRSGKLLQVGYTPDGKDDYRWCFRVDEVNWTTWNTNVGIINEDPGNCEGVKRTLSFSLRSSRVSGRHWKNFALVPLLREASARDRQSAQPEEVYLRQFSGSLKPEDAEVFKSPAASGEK
smiles,measurement,value
"CCOC(=O)c1c(C)nn(-c2ccc(NC(=O)C3CCN(c4cccc(C(F)(F)F)c4)CC3)cn2)c1C [Example 36, 3,5-Dimethyl-1-(5-{[1-(3-trifluoromethyl-phenyl)-piperidine-4-carbonyl]-amino}-pyridin-2-yl)-1H-pyrazole-4-carboxylic acid ethyl ester]",inhibition at 9 µM,14%
"O=C1COc2cc(NC(=O)C3CCN(c4cccc(C(F)(F)F)c4)CC3)ccc2N1 [Example 44, 1-(3-Trifluoromethyl-phenyl)-piperidine-4-carboxylic acid (3-oxo-3,4-dihydro-2H-benzo[1,4]oxazin-7-yl)-amide]",inhibition at 9 µM,33%
"O=C(Nc1ccc2c(c1)OCO2)C1CCN(c2cccc(C(F)(F)F)c2)CC1 [Example 15, 1-(3-Trifluoromethyl-phenyl)-piperidine-4-carboxylic acid benzo[1,3]dioxol-5-ylamide]",inhibition at 9 µM,61%
same,IC50,4570 nM
"Cc1nsc2ccc(NC(=O)C3CCN(c4cccc(C(F)(F)F)c4)CC3)cc12 [Example 12, 1-(3-Trifluoromethyl-phenyl)-piperidine-4-carboxylic acid (3-methyl-benzo[d]isothiazol-5-yl)-amide]",Emax at 12.2 µM,74%
same,EC50,860 nM
"O=C1COc2ccc(NC(=O)C3CCN(c4c(F)c(F)c(Br)c(F)c4F)CC3)cc2N1 [Example 164, 1-(4-Bromo-2,3,5,6-tetrafluoro-phenyl)-piperidine-4-carboxylic acid (3-oxo-3,4-dihydro-2H-benzo[1,4]oxazin-6-yl)-amide]",inhibition at 9 µM,87%
same,IC50,110 nM
"COc1ccc(NC(=O)C2CCN(c3cccc(C(F)(F)F)c3)CC2)cn1 [Example 25, 1-(3-Trifluoromethyl-phenyl)-piperidine-4-carboxylic acid (6-methoxy-pyridin-3-yl)-amide]",Emax at 12.2 µM,74%
same,EC50,850 nM
"O=C(Nc1cccc2cn[nH]c12)C1CCN(c2cccc(C(F)(F)F)c2)CC1 [Example 11, 1-(3-Trifluoromethyl-phenyl)-piperidine-4-carboxylic acid (1H-indazol-7-yl)-amide]",inhibition at 9 µM,72%
same,IC50,2840 nM
"O=C(Nc1ccc2c(c1)N(CCO)C(=O)CO2)C1CCN(c2cccc(C(F)(F)F)c2)CC1 [Example 168, 1-(3-Trifluoromethyl-phenyl)-piperidine-4-carboxylic acid [4-(2-hydroxy-ethyl)-3-oxo-3,4-dihydro-2H-benzo[1,4]oxazin-6-yl]-amide]",inhibition at 9 µM,59.6%
"CCOC(=O)c1[nH]c2ccccc2c1NC(=O)C1CCN(c2cccc(C(F)(F)F)c2)CC1 [Example 14, 3-{[1-(3-Trifluoromethyl-phenyl)-piperidine-4-carbonyl]-amino}-1H-indole-2-carboxylic acid ethyl ester]",inhibition at 9 µM,4%
"O=C(Nc1ncnc2sccc12)C1CCN(c2cccc(C(F)(F)F)c2)CC1 [Example 10, 1-(3-Trifluoromethyl-phenyl)-piperidine-4-carboxylic acid thieno[2,3-d]pyrimidin-4-ylamide]",Emax at 12.2 µM,81%
same,EC50,860 nM
"O=C(Nc1ccc(O)c2ncccc12)C1CCN(c2cccc(C(F)(F)F)c2)CC1 [Example 27, 1-(3-Trifluoromethyl-phenyl)-piperidine-4-carboxylic acid (8-hydroxy-quinolin-5-yl)-amide]",inhibition at 9 µM,13%
"O=C(Nc1ccc2nc(S)sc2c1)C1CCN(c2cccc(C(F)(F)F)c2)CC1 [Example 26, 1-(3-Trifluoromethyl-phenyl)-piperidine-4-carboxylic acid (2-mercapto-benzothiazol-6-yl)-amide]",Emax at 12.2 µM,35.5%
same,EC50,2550 nM
"O=C(Nc1cnc2ccccc2c1)C1CCN(c2cccc(C(F)(F)F)c2)CC1 [Example 2, 1-(3-Trifluoromethyl-phenyl)-piperidine-4-carboxylic acid quinolin-3-ylamide]",inhibition at 9 µM,109%
same,IC50,600 nM
"COc1ccc(-c2cnc(NC(=O)C3CCN(c4cccc(C(F)(F)F)c4)CC3)nc2C)cc1OC [Example 42, 1-(3-Trifluoromethyl-phenyl)-piperidine-4-carboxylic acid [5-(3,4-dimethoxy-phenyl)-4-methyl-pyrimidin-2-yl]-amide]",inhibition at 9 µM,11%
"Cc1cc(Cl)nnc1NC(=O)C1CCN(c2cccc(C(F)(F)F)c2)CC1 [Example 51, 1-(3-Trifluoromethyl-phenyl)-piperidine-4-carboxylic acid (6-chloro-4-methyl-pyridazin-3-yl)-amide]",inhibition at 9 µM,8%
"Cc1nc2ccc(NC(=O)C3CCN(c4cccc(C(F)(F)F)c4)CC3)nc2nc1C [Example 40, 1-(3-Trifluoromethyl-phenyl)-piperidine-4-carboxylic acid (2,3-dimethyl-pyrido[2,3-b]pyrazin-6-yl)-amide]",inhibition at 9 µM,11.5%
"O=C1COc2ccc(NC(=O)C3CCN(c4cc(C(F)(F)F)ccc4C(F)(F)F)CC3)cc2N1 [Example 166, 1-(2,5-Bis-trifluoromethyl-phenyl)-piperidine-4-carboxylic acid (3-oxo-3,4-dihydro-2H-benzo[1,4]oxazin-6-yl)-amide]",inhibition at 9 µM,100%
same,IC50,290 nM
"O=C(Nc1cnc2ccccc2c1)C1CCN(c2ccc(C(F)(F)F)cc2)CC1 [Example 4, 1-(4-Trifluoromethyl-phenyl)-piperidine-4-carboxylic acid quinolin-3-ylamide]",inhibition at 9 µM,7.5%
"O=C1COc2ccc(NC(=O)C3CCN(c4ccccc4C(F)(F)F)CC3)cc2N1 [Example 165, 1-(2-Trifluoromethyl-phenyl)-piperidine-4-carboxylic acid (3-oxo-3,4-dihydro-2H-benzo[1,4]oxazin-6-yl)-amide]",inhibition at 9 µM,94.8%
same,IC50,380 nM
"O=C1COc2ccc(NC(=O)C3CCN(c4nc5ccccc5s4)CC3)cc2N1 [Example 159, 1-Benzothiazol-2-yl-piperidine-4-carboxylic acid (3-oxo-3,4-dihydro-2H-benzo[1,4]oxazin-6-yl)-amide]",inhibition at 9 µM,20.7%
"CCn1cnc2c(NC(=O)C3CCN(c4cccc(C(F)(F)F)c4)CC3)ncnc21 [Example 7, 1-(3-Trifluoromethyl-phenyl)-piperidine-4-carboxylic acid (9-ethyl-9H-purin-6-yl)-amide]",inhibition at 9 µM,5%
"Cc1cccnc1N1CCC(C(=O)Nc2ccc3c(c2)NC(=O)CO3)CC1 [Example 158, 3′-Methyl-3,4,5,6-tetrahydro-2H-[1,2′]bipyridinyl-4-carboxylic acid (3-oxo-3,4-dihydro-2H-benzo[1,4]oxazin-6-yl)-amide]",inhibition at 9 µM,39%
"O=C(Nc1cc(-c2cccs2)n[nH]1)C1CCN(c2cccc(C(F)(F)F)c2)CC1 [Example 48, 1-(3-Trifluoromethyl-phenyl)-piperidine-4-carboxylic acid (5-thiophen-2-yl-2H-pyrazol-3-yl)-amide]",inhibition at 9 µM,9.5%
"O=C(Nc1ncnc2ccccc12)C1CCN(c2cccc(C(F)(F)F)c2)CC1 [Example 39, 1-(3-Trifluoromethyl-phenyl)-piperidine-4-carboxylic acid quinazolin-4-ylamide]",inhibition at 9 µM,3.5%
"O=C(Nc1cnc2ccccc2c1)C1CCN(c2ccc(-c3ccccc3)cc2)CC1 [Example 1, 1-Biphenyl-4-yl-piperidine-4-carboxylic acid quinolin-3-ylamide]",inhibition at 9 µM,7%
"Cc1c(Cl)cccc1N1CCC(C(=O)Nc2ccc3c(c2)NC(=O)CO3)CC1 [Example 157, 1-(3-Chloro-2-methyl-phenyl)-piperidine-4-carboxylic acid (3-oxo-3,4-dihydro-2H-benzo[1,4]oxazin-6-yl)-amide]",inhibition at 9 µM,90.3%
same,IC50,100 nM
"Cc1nc2cc(NC(=O)C3CCN(c4cccc(C(F)(F)F)c4)CC3)ccc2s1 [Example 19, 1-(3-Trifluoromethyl-phenyl)-piperidine-4-carboxylic acid (2-methyl-benzothiazol-5-yl)-amide]",inhibition at 9 µM,7.5%
"O=C(Nc1ccc2[nH]ccc2c1)C1CCN(c2cccc(C(F)(F)F)c2)CC1 [Example 22, 1-(3-Trifluoromethyl-phenyl)-piperidine-4-carboxylic acid (1H-indol-5-yl)-amide]",inhibition at 9 µM,78%
same,IC50,1070 nM
"O=C(Nc1ccc(Oc2ccccc2)nc1)C1CCN(c2cccc(C(F)(F)F)c2)CC1 [Example 32, 1-(3-Trifluoromethyl-phenyl)-piperidine-4-carboxylic acid (6-phenoxy-pyridin-3-yl)-amide]",inhibition at 9 µM,13%
"Cc1cc(C)c2c(NC(=O)C3CCN(c4cccc(C(F)(F)F)c4)CC3)csc2n1 [Example 41, 1-(3-Trifluoromethyl-phenyl)-piperidine-4-carboxylic acid (4,6-dimethyl-thieno[2,3-b]pyridin-3-yl)-amide]",inhibition at 9 µM,12%
"O=C1COc2ccc(NC(=O)C3CCN(c4cccc(Br)c4)CC3)cc2N1 [Example 149, 1-(3-Bromo-phenyl)-piperidine-4-carboxylic acid (3-oxo-3,4-dihydro-2H-benzo[1,4]oxazin-6-yl)-amide]",inhibition at 9 µM,91.3%
same,IC50,330 nM
